In assay [1] the target is T1, baculovirus-expressed ALK (Homo sapiens, UniProt Q9UM73).
T1 construct: host or cells: baculovirus expression system
The assay can be described thus: ALK Kinase Assay (ELISA-type, time-resolved fluorescence). It counts as biochemical. In outline:
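Plates coated with phospholipase C-γ substrate (10 μg/mL in TBS); reaction started with 30 ng/ml ALK and run 15 min at 37° C. Phosphorylated substrate detected with Eu-N1-labeled PT66 antibody. IC50 from sigmoidal variable-slope fit of percent inhibition vs log concentration.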

In assay [2] the target is T2, c-Met (cytoplasmic domain) (Homo sapiens, UniProt P08581).
T2 construct: 10 ng/mL c-Met (cytoplasmic domain, Invitrogen Corporation #PV3143); purchased Invitrogen Corporation PV3143
T2 sequence (P08581 956-1390 limits assumed): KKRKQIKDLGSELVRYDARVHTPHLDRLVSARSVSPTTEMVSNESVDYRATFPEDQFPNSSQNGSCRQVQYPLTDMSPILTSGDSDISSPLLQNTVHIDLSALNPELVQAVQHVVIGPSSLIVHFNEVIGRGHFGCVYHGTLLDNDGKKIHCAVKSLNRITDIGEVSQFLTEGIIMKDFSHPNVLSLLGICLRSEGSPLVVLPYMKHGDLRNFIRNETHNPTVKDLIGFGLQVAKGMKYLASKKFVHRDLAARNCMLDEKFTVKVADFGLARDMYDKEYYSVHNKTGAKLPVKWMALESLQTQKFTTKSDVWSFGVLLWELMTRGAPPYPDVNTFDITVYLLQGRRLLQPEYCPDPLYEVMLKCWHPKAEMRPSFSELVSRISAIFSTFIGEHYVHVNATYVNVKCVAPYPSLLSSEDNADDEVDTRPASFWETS
The experiment in a line: c-Met Kinase Assay (same methods as for ALK, with modifications). It counts as biochemical. In outline:
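Plates were coated with phospholipase C-γ substrate (10 μg/mL) in TBS, and the reaction was started with 10 ng/mL c-Met cytoplasmic domain and run 15 min at 37 °C. Phosphoproduct was detected with Eu-N1-labelled PT66 antibody. IC50 came from a variable-slope sigmoidal fit of percent inhibition vs log concentration.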

Where [3] appears, read: ALK kinase inhibition, 1 μM ATP, read-out: ALK Activity.
[4] abbreviates: c-Met kinase inhibition, 1 μM ATP, read-out: cMet Activity.
The mark [5] stands for this setting: ALK kinase inhibition, 1 μM ATP (Km level), read-out: ALK Activity.
Where [6] appears, read: c-Met kinase inhibition, 1 μM ATP (Km level), read-out: cMet Activity.
The mark [7] stands for this setting: 1 μM ATP (Km level), 30 ng/ml ALK, 37° C., 15 minutes, read-out: ALK Activity (ALK kinase inhibition, IC50 class).
[8] abbreviates: 1 μM ATP (Km level), 10 ng/mL c-Met, read-out: cMet Activity (c-Met kinase inhibition, IC50 class).
[9] abbreviates: 1 μM ATP (Km level), read-out: ALK Activity (ALK Kinase Inhibition, IC50).
Where [10] appears, read: 1 μM ATP (Km level), read-out: cMet Activity (c-Met Kinase Inhibition, IC50).

The structures appear in SMILES notation. pIC50: −log10 of the molar value. Where two headings read alike, the source gives them in different places.

T1 sequence (Q9UM73 19-1620): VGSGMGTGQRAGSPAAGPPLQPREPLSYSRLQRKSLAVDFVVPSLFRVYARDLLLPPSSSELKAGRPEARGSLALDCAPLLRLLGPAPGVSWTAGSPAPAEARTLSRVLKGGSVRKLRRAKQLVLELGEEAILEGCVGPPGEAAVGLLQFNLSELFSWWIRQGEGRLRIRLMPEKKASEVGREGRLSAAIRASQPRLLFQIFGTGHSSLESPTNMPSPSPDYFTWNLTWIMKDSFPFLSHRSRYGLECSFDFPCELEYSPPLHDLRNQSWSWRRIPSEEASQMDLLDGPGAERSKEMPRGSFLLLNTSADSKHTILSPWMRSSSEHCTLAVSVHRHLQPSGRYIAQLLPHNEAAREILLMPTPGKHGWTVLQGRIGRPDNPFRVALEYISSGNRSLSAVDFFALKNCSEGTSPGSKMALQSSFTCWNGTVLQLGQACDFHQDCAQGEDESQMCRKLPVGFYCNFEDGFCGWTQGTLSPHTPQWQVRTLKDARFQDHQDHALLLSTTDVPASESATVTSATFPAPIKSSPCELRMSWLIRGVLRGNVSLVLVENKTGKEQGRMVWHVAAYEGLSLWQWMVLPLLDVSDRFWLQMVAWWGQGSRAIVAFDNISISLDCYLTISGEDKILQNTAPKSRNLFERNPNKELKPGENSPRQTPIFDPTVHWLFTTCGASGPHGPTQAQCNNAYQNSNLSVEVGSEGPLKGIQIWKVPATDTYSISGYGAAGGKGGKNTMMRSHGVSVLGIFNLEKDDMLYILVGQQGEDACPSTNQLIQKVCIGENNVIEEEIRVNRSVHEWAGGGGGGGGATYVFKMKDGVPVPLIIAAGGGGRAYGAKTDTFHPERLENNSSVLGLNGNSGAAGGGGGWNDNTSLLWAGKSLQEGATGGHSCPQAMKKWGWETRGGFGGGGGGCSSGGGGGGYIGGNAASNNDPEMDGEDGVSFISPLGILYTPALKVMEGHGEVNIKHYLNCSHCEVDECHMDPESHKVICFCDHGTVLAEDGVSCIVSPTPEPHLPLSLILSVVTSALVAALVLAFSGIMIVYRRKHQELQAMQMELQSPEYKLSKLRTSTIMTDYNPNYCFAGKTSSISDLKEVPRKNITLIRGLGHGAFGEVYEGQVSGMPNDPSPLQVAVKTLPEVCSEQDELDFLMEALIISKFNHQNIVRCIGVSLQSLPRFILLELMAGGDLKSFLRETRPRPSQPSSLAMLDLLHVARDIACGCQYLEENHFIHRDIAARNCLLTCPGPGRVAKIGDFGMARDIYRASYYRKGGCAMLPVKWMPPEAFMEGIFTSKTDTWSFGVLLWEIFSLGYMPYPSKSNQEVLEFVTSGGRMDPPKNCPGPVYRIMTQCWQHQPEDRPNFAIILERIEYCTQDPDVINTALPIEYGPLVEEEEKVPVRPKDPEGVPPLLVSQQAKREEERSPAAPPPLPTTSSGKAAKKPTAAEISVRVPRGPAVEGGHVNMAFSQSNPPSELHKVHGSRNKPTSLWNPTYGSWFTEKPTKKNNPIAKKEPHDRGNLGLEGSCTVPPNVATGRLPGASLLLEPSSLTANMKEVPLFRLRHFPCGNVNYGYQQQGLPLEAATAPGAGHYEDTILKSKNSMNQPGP

Consider `CN1Cc2cc(Nc3ncc(Cl)c(Nc4ccccc4-c4nccn4C)n3)ccc2CCC1=O` [Example 1802, 8-{5-Chloro-4-[2-(1-methyl-1H-imidazol-2-yl)-phenylamino]-pyrimidin-2-ylamino}-2-methyl-1,2,4,5-tetrahydro-benzo[c]azepin-3-one], for which the pIC50 is 5.00 to 6.00 in assay [1] (setting [3]) and 6.00 to 7.00 in assay [2] (setting [4]).
The like results for `CCN1CCN(CC(=O)OCCOC)C(=O)c2ccc(Nc3ncc(Cl)c(Nc4ccccc4C(=O)NC)n3)cc21` [Example 1459, {8-[5-Chloro-4-(2-methylcarbamoyl-phenylamino)-pyrimidin-2-ylamino]-1-ethyl-5-oxo-1,2,3,5-tetrahydro-benzo[e][1,4]diazepin-4-yl}-acetic acid 2-methoxy-ethyl ester] were, in that order, over 7.00 and over 7.00.
Regarding `CC(=O)N1CC2CCC(C1)c1cc(Nc3ncc(Cl)c(N[C@@H]4CCCC[C@H]4NS(C)(=O)=O)n3)ccc12` (stereo partly drawn) [Example 295, N-{(1R,2R)-2-[2-(10-Acetyl-10-aza-tricyclo[6.3.2.0*2,7*]trideca-2,4,6-trien-4-ylamino)-5-chloro-pyrimidin-4-ylamino]-cyclohexyl}-methanesulfonamide], the values for the pIC50 in assay [1] (setting [5]) and in assay [2] (setting [6]) were over 7.00 and 6.00 to 7.00, respectively.
For `CCN1CCCOc2cc(Nc3ncc(Cl)c(Nc4ccc(N5CCOCC5)cc4OC)n3)c(F)cc21` [Example 1688, 5-Chloro-N*2*-(9-ethyl-2-fluoro-6,7,8,9-tetrahydro-5-oxa-9-aza-benzocyclohepten-3-yl)-N*4*-(2-methoxy-4-morpholin-4-yl-phenyl)-pyrimidine-2,4-diamine], the pIC50 in assay [1] (setting [3]) is 6.00 to 7.00; in assay [2] (setting [4]), under 5.00.
On to `CNC(=O)c1ccccc1Nc1nc(Nc2ccc3c(c2)CNCCN3C)ncc1Cl` [Example 420, 2-[5-Chloro-2-(1-methyl-2,3,4,5-tetrahydro-1H-benzo[e][1,4]diazepin-7-ylamino)-pyrimidin-4-ylamino]-N-methylbenzamide], for which the pIC50 in assay [1] (setting [5]) and in assay [2] (setting [6]) was over 7.00 each time.
In the case of `CCNC(=O)c1ccccc1Nc1nc(Nc2c(OC)ccc3c2CC(=O)N(CC)CC3)ncc1Cl` [Example 1134, 2-[5-Chloro-2-(3-ethyl-7-methoxy-4-oxo-2,3,4,5-tetrahydro-1H-benzo[d]azepin-6-ylamino)-pyrimidin-4-ylamino]-N-ethyl-benzamide], the pIC50 in assay [1] (setting [7]) and in assay [2] (setting [8]) was under 5.00 each time.
With `CCN1CC(=O)N(CC)c2cc(Nc3ncc(Cl)c(Nc4ccccc4S(=O)(=O)N(C)C)n3)c(OC)cc2C1` [Example 738, 2-[5-Chloro-2-(1,4-diethyl-7-methoxy-2-oxo-2,3,4,5-tetrahydro-1H-benzo[e][1,4]diazepin-8-ylamino)-pyrimidin-4-ylamino]-N,Ndimethyl-benzenesulfonamide], the pIC50 was over 7.00 in assay [1] (setting [9]) and under 5.00 in assay [2] (setting [10]).
Regarding `CN1C(=O)CCCc2ccc(Nc3ncc(Cl)c(NC4C5C=CC(C5)C4C(N)=O)n3)cc21` (stereo not drawn) [Example 110, (2-exo,3-exo)-3-[5-Chloro-2-(1-methyl-2-oxo-2,3,4,5-tetrahydro-1H-benzo[b]azepin-8-ylamino)pyrimidin-4-ylamino]-bicyclo[2.2.1]hept-5-ene-2-carboxylic acid amide], the pIC50 is over 7.00 in assay [1] (setting [5]) and 6.00 to 7.00 in assay [2] (setting [6]).
Regarding `COc1c(Nc2ncc(Cl)c(N[C@@H]3CCCC[C@H]3NS(C)(=O)=O)n2)ccc2c1CCCC(NCCO)C2` (stereo partly drawn) [Example 965, N-((1R,2R)-2-{5-Chloro-2-[6-(2-hydroxy-ethylamino)-1-methoxy-6,7,8,9-tetrahydro-5H-benzocyclohepten-2-ylamino]-pyrimidin-4-ylamino}-cyclohexyl)-methanesulfonamide], the pIC50 in assay [1] (setting [9]) was over 7.00; in assay [2] (setting [10]), under 5.00.
In the case of `COc1cc2c(cc1Nc1ncc(Cl)c(Nc3ccccc3S(=O)(=O)N(C)C)n1)CCN(CCCN1CCOCC1)C(=O)C2` [Example 1183, 2-{5-Chloro-2-[8-methoxy-3-(3-morpholin-4-yl-propyl)-2-oxo-2,3,4,5-tetrahydro-1H-benzo[d]azepin-7-ylamino]-pyrimidin-4-ylamino}-N,N-dimethyl-benzenesulfonamide], the pIC50 in assay [1] (setting [7]) is over 7.00; in assay [2] (setting [8]) it was under 5.00.
For the compound `COCCN1CCc2ccc(Nc3ncc(Cl)c(NCCNS(C)(=O)=O)n3)cc2CC1` [Example 299, N-(2-{5-Chloro-2-[3-(2-methoxy-ethyl)-2,3,4,5-tetrahydro-1H-benzo[d]azepin-7-ylamino]-pyrimidin-4-ylamino}-ethyl)-methanesulfonamide], the results for the pIC50 in assay [1] (setting [5]) and in assay [2] (setting [6]) were 6.00 to 7.00 and 5.00 to 6.00, respectively.
The like results for `CCN1C(=O)C(C)(C)CCc2c1ccc(Nc1ncc(Cl)c(Nc3ccc(N4CCOCC4)cc3OC)n1)c2OC` [Example 141, 7-[5-Chloro-4-(2-methoxy-4-morpholin-4-yl-phenylamino)-pyrimidin-2-ylamino]-1-ethyl-6-methoxy-3,3-dimethyl-1,3,4,5-tetrahydro-benzo[b]azepin-2-one] were, in that order, 6.00 to 7.00 and under 5.00.
As to `CCN1CCN(CC(=O)N(C)C)Cc2cc(OC)c(Nc3ncc(Cl)c(N[C@@H]4CCCC[C@H]4NS(C)(=O)=O)n3)cc21` [Example 1461, 2-{8-[5-Chloro-4-((1R,2R)-2-methanesulfonylamino-cyclohexylamino)-pyrimidin-2-ylamino]-1-ethyl-7-methoxy-1,2,3,5-tetrahydro-benzo[e][1,4]diazepin-4-yl}-N,N-dimethyl-acetamide], the pIC50 is over 7.00 in assay [1] (setting [3]) and under 5.00 in assay [2] (setting [4]).
With `CCN1C(=O)CCCc2ccc(Nc3ncc(Br)c(Nc4c(F)cccc4C(=O)NC)n3)cc21` [Example 359, 2-[5-Bromo-2-(1-ethyl-2-oxo-2,3,4,5-tetrahydro-1H-benzo[b]azepin-8-ylamino)-pyrimidin-4-ylamino]-3-fluoro-N-methyl-benzamide], the pIC50 in assay [1] (setting [5]) and in assay [2] (setting [6]) was over 7.00 in each case.
`CNC(=O)c1ccccc1Nc1nc(Nc2ccc3c(c2)CC(=O)N(C)CC3)ncc1Cl` [Example 1815, 2-[5-Chloro-2-(3-methyl-4-oxo-2,3,4,5-tetrahydro-1H-benzo[d]azepin-7-ylamino)-pyrimidin-4-ylamino]-N-methylbenzamide]: the results for the pIC50 in assay [1] (setting [3]) and in assay [2] (setting [4]) were 5.00 to 6.00 and 6.00 to 7.00, respectively.
With `Cc1ccnc(-c2ccccc2Nc2nc(Nc3ccc4c(c3)CCCC(=O)N4C)ncc2Cl)c1` [Example 1002, 7-{5-Chloro-4-[2-(4-methyl-pyridin-2-yl)-phenylamino]-pyrimidin-2-ylamino}-1-methyl-1,3,4,5-tetrahydro-benzo[b]azepin-2-one], the pIC50 in assay [1] (setting [9]) and in assay [2] (setting [10]) was 6.00 to 7.00 each time.
On to `CCN1CC(=O)N(CC)c2cc(Nc3ncc(Cl)c(N[C@@H]4CCCC[C@H]4NS(C)(=O)=O)n3)c(OC)cc2C1` [Example 736, N,N-{(1R,2R)-2-[5-Chloro-2-(1,4-diethyl-7-methoxy-2-oxo-2,3,4,5-tetrahydro-1H-benzo[e][1,4]diazepin-8-ylamino)-pyrimidin-4-ylamino]-cyclohexyl}-methanesulfonamide], for which the pIC50 was 6.00 to 7.00 in assay [1] (setting [9]) and under 5.00 in assay [2] (setting [10]).
`CNC(=O)c1ccc(NC(C)=O)cc1Nc1nc(Nc2ccc3c(c2)C(C)(C)CCC(=O)N3)ncc1Cl` [Example 1244, 4-Acetylamino-2-[5-chloro-2-(5,5-dimethyl-2-oxo-2,3,4,5-tetrahydro-1H-1-benzazepin-7-ylamino)-pyrimidin-4-ylamino]-N-methyl-benzamide]: the pIC50 in assay [1] (setting [7]) and in assay [2] (setting [8]) was 5.00 to 6.00 each time.
On to `CCN1CCCC(C)(C)c2ccc(Nc3ncc(Cl)c(Nc4ccc(N5CCOCC5)cc4OC)n3)cc21` [Example 1635, 5-Chloro-N*2*-(1-ethyl-5,5-dimethyl-2,3,4,5-tetrahydro-1H-benzo[b]azepin-8-yl)-N*4*-(2-methoxy-4-morpholin-4-yl-phenyl)-pyrimidine-2,4-diamine], for which the pIC50 in assay [1] (setting [3]) was 6.00 to 7.00; in assay [2] (setting [4]), under 5.00.
As for `COc1cc2c(cc1Nc1ncc(Cl)c(Nc3cc(C#N)ccc3OC)n1)CCN(CC(N)=O)CC2` [Example 1154, 2-{7-[5-Chloro-4-(5-cyano-2-methoxy-phenylamino)-pyrimidin-2-ylamino]-8-methoxy-1,2,4,5-tetrahydro-benzo[d]azepin-3-yl}-acetamide], the figures for the pIC50 in assay [1] (setting [7]) and in assay [2] (setting [8]) were over 7.00 and under 5.00, respectively.
As to `COc1c(Nc2ncc(Cl)c(Nc3ccccc3S(=O)(=O)C(C)C)n2)ccc2c1CCCC(NCCO)C2` (centres unmarked) [Example 961, 2-(2-{5-Chloro-4-[2-(propane-2-sulfonyl)-phenylamino]-pyrimidin-2-ylamino}-1-methoxy-6,7,8,9-tetrahydro-5H-benzocyclohepten-6-ylamino)-ethanol], the figures for the pIC50 in assay [1] (setting [9]) and in assay [2] (setting [10]) were over 7.00 and under 5.00, respectively.
Take `COc1cc2c(cc1Nc1ncc(Cl)c(Nc3ccc(N4CCN(C5CCN(C)CC5)CC4)cc3OC)n1)CCN(CC(=O)N(C)C)CC2` [Example 835, 2-[7-(5-Chloro-4-{2-methoxy-4-[4-(1-methyl-piperidin-4-yl)-piperazin-1-yl]-phenylamino}-pyrimidin-2-ylamino)-8-methoxy-1,2,4,5-tetrahydro-benzo[d]azepin-3-yl]-N,N-dimethyl-acetamide]: the pIC50 in assay [1] (setting [9]) is over 7.00; in assay [2] (setting [10]), under 5.00.

The record behind these values is patent US8148391B2 (Cephalon, Inc., priority 2006, dated 2012).
